Results: patent US5235061A, “Fungicidal (1H-1,2,4-triazolyl)disilaalkanes” (priority 1991, dated 1993)
Like-named read-outs stand apart in the source and are kept apart here.

Columns and labels:
Experiment in all cases: In vitro percent disease control (radii of spore growth on agar)
Type in all cases: cell-based
[1] = tested on: Pyricalaria oryzae; settings: for inhibition of growth at 50 ppm: read-out: % controlled, Py. or., 50 ppm; for inhibition of growth at 100 ppm: read-out: % controlled, Py. or., 100 ppm
How it was run: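 Compounds at 100 ppm and 50 ppm (10% acetone in water) mixed into potato-sucrose-agar, P. oryzae spotted centrally and incubated several days. Percent disease control derived from radii of spore growth.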

[2] = tested on: Botryosphaeria dothidea Macrophoma sp.; settings: Botryosphaeria dothidea, read-out: % controlled, Bo.do (Ma.)
How it was run: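 Compounds (100 and 50 ppm, 10% acetone in water) were mixed into potato-sucrose-agar and the fungus was spotted centrally, then incubated several days in a growth room. Percent disease control came from radii of spore growth.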

[3] = tested on: Glomerella cingulata; settings: Colletotrichum gloeosporioides, read-out: % controlled, Glo.
How it was run: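 Compounds were dissolved in acetone (10% of final volume) plus water at 100 ppm and 50 ppm and mixed into potato-sucrose agar. G. cingulata was spotted centrally and incubated for several days in a growth room. Percent disease control was derived from the radii of spore growth.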

[4] = tested on: Phytophthora capsisi; settings: Phytophthora, read-out: % controlled, Phy ca.
How it was run: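 Compounds dissolved in acetone (10% of final volume) then water at 100 ppm and 50 ppm, mixed into potato-sucrose-agar; fungus spotted at plate centre and incubated several days. Percent disease control derived from radii of spore growth.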

[5] = tested on: Fusarium moniliforme
How it was run: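 Compounds in 10% acetone/water at 100 and 50 ppm were mixed into potato-sucrose-agar, with Fusarium moniliforme spotted centrally. After several days' incubation, percent disease control was derived from radii of spore growth.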

[6] = tested on: Physalospora baccae; settings: read-out: % controlled, Phy ba.
How it was run: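 Compounds at 100 and 50 ppm (10% acetone) mixed into potato-sucrose-agar, fungus spotted centrally and grown several days in a growth room. Percent disease control derived from radii of spore growth.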

[7] = tested on: Rhizopus sp.; settings: Rhizopus
How it was run: (§1)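 Compounds in acetone (10% of final volume) diluted with water to 100 and 50 ppm, then mixed into potato-sucrose-agar with each fungus spotted centrally. Incubated several days in a growth room; percent disease control derived from radii of spore growth.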

[8] = tested on: Alternaria mali; settings: Alternaria mali, read-out: % controlled, Al.
How it was run: as §1

[9] = tested on: Rhizoctonia solani; settings: Rhizoctonia solani, read-out: % controlled, Rhy. so.
How it was run: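 Test compounds at 100 ppm and 50 ppm (acetone 10% of final volume, then water) were mixed into potato-sucrose-agar, and the fungus was spotted at the dish centre. Dishes were incubated several days in a growth room. Percent disease control was derived from the radii of spore growth.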

[10] = tested on: Botry tris cinerea; settings: read-out: % controlled, Bo ci.
How it was run: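 Compounds at 100 and 50 ppm (acetone 10% of final volume, rest water) mixed into potato-sucrose agar; Botrytis cinerea spotted at dish centre. After several days' incubation, percent disease control calculated from radii of spore growth.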

[11] = 50 ppm, read-out: % controlled, Rhi. sp.
[12] = read-out: % controlled, Rhi. sp.

SMILES | inhibition of growth at 50 ppm [1] | inhibition of growth at 100 ppm [1] | inhibition of growth at 50 ppm [2] | inhibition of growth at 100 ppm [2] | inhibition of growth at 50 ppm [3] | inhibition of growth at 100 ppm [3] | inhibition of growth at 50 ppm [4] | inhibition of growth at 100 ppm [4] | % controlled, Fu. mo. ([5]; 50 ppm) | % controlled, Fu. mo. ([5]; 100 ppm) | inhibition of growth at 50 ppm [6] | inhibition of growth at 100 ppm [6] | inhibition of growth at 50 ppm [7, 11] | inhibition of growth at 100 ppm [7, 12] | inhibition of growth at 50 ppm [8] | inhibition of growth at 100 ppm [8] | inhibition of growth at 50 ppm [9] | inhibition of growth at 100 ppm [9] | inhibition of growth at 50 ppm [10] | inhibition of growth at 100 ppm [10] | further results
CCOc1ccc([Si](C)(C)C[Si](Cn2cncn2)(c2ccc(F)cc2)c2ccc(Cl)cc2)cc1 (stereo not shown) [2-(4-chlorophenyl)-4-(4-ethoxyphenyl)-2-(4-fluorophenyl)-4-methyl-2,4-disila-1-(1H-1,2,4-triazol-1-yl)pentane] | 100% | 100% | 74% | 79% | 87% | 87% | 23% | 25% | 46% | 46% | 69% | 69% | 50% | 50% | 75% | 79% | 96% | 96% | 90% | 90% | –
C=CC[Si](C)(Cn1cncn1)C[Si](CC=C)(c1ccc(F)cc1)c1ccc(F)cc1 (stereo not shown) [6,6-bis(4-fluorophenyl)-4-methyl-4,6-disila-4-(1H-1,2,4-triazol-1-ylmethyl)-1,8-nonadiene] | 85% | 100% | 100% | 100% | 100% | 100% | 21% | 100% | 100% | 100% | 60% | 80% | 100% | 100% | 78% | 100% | 75% | 87% | 86% | 100% | –
C=CC[Si](C)(Cn1cncn1)C[Si](CC=C)(c1ccccc1)c1ccccc1 (stereo not shown) [6,6-diphenyl-4-methyl-4,6-disila-4-(1H-1,2,4-triazol-1-ylmethyl)-1,8-nonadiene] | 100% | 100% | 80% | 100% | 89% | 100% | 33% | 40% | 60% | 100% | 84% | 100% | 50% | 100% | 72% | 89% | 80% | 100% | 77% | 100% | –
C[Si](C)(C[Si](C)(Cn1cncn1)c1ccc(F)cc1)c1ccc(F)cc1 (stereo not shown) [2,4-bis(4-fluorophenyl)-2,4-dimethyl,2,4-disila-1-(1H-1,2,4-triazol-1-yl)pentane] | 50% | 54% | 40% | 43% | 72% | 73% | 3% | 6% | 35% | 38% | 22% | 22% | 24% | 26% | 38% | 44% | 57% | 60% | 0% | 10% | –
C[Si](C)(C)C[Si](Cn1cncn1)(c1ccc(Cl)cc1)c1ccc(Cl)cc1 [2,2-bis(4-chlorophenyl)-4,4-dimethyl-2,4-disila-1-(1H-1,2,4-triazol-1-yl)pentane] | 90% | 95% | 70% | 72% | 83% | 89% | 28% | 34% | 46% | 65% | 90% | 100% | 51% | 54% | 75% | 79% | 56% | 66% | 67% | 85% | –
CCOc1ccc([Si](C)(C)C[Si](C)(Cn2cncn2)c2ccc(F)cc2)cc1 (stereo not shown) [4-(4-ethoxyphenyl)-2-(4-fluorophenyl)-2,4-dimethyl-2,4-disila-1-(1H-1,2,4-triazol-1-yl)pentane] | 100% | 100% | 74% | 78% | 71% | 77% | 50% | 60% | 58% | 63% | 53% | 74% | – | 43% | 63% | 72% | 78% | 78% | 69% | 66% | inhibition of growth at 50 ppm ([7]; read-out: % controlled, Rhi. sp., 50 ppm): 19%
C=CC[Si](C)(Cn1cncn1)C[Si](CC=C)(c1ccccc1)c1ccc(-c2ccccc2)cc1 (stereo not shown) [4-methyl-6-phenyl-6-(4-phenylphenyl)-4,6-disila-4-(1H-1,2,4-triazol-1-ylmethyl)-1,8-nonadiene] | 100% | 100% | 100% | 100% | 100% | 100% | 38% | 60% | 100% | 100% | 84% | 100% | 40% | 56% | 72% | 100% | 80% | 100% | 77% | 100% | –
COc1ccc([Si](C)(Cn2cncn2)C[Si](C)(C)c2ccc(Cl)cc2)cc1 (stereo not shown) [4-(4-chlorophenyl)-2-(4-methoxyphenyl)-2,4-dimethyl-2,4-disila-1-(1H-1,2,4-triazol-1-yl)pentane] | 100% | 100% | 34% | 66% | 56% | 82% | 43% | 59% | 28% | 41% | 50% | 60% | 32% | 48% | 30% | 62% | 100% | 100% | 40% | 80% | –
